Assay results from PubChem BioAssay (NCI).
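At the GI50, growth is halved. At the TGI there is no net growth.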

Columns and labels:
Assay in all cases: NCI tumour cell line growth inhibition, 384-well format
NCI/ADR-RES ovarian = system: NCI/ADR-RES ovarian
SK-MEL-28 melanoma = system: SK-MEL-28 melanoma
UACC-62 melanoma = system: UACC-62 melanoma
SF-295 CNS = system: SF-295 CNS
HCC-2998 colon = system: HCC-2998 colon
786-0 renal = system: 786-0 renal
CCRF-CEM leukemia = system: CCRF-CEM leukemia
LOX IMVI melanoma = system: LOX IMVI melanoma
MDA-MB-231 breast = system: MDA-MB-231 breast
SW-620 colon = system: SW-620 colon
RXF 393 renal = system: RXF 393 renal
BT-549 breast = system: BT-549 breast
CAKI-1 renal = system: CAKI-1 renal
A498 renal = system: A498 renal
TK-10 renal = system: TK-10 renal
MALME-3M melanoma = system: MALME-3M melanoma
RPMI-8226 leukemia = system: RPMI-8226 leukemia
SNB-75 CNS = system: SNB-75 CNS
OVCAR-5 ovarian = system: OVCAR-5 ovarian
M14 melanoma = system: M14 melanoma
SNB-19 CNS = system: SNB-19 CNS
OVCAR-8 ovarian = system: OVCAR-8 ovarian
MDA-MB-435 melanoma = system: MDA-MB-435 melanoma
COLO 205 colon = system: COLO 205 colon
HOP-92 NSCLC = system: HOP-92 NSCLC
HCT-15 colon = system: HCT-15 colon
HS 578T breast = system: HS 578T breast
MOLT-4 leukemia = system: MOLT-4 leukemia
NCI-H322M lung = system: NCI-H322M lung
IGROV1 ovarian = system: IGROV1 ovarian
OVCAR-4 ovarian = system: OVCAR-4 ovarian
ACHN renal = system: ACHN renal
A549 NSCLC = system: A549 NSCLC
NCI-H522 lung = system: NCI-H522 lung
NCI-H23 lung = system: NCI-H23 lung
U251 glioblastoma = system: U251 glioblastoma
OVCAR-3 ovarian = system: OVCAR-3 ovarian
PC-3 prostate = system: PC-3 prostate
MDA-MB-468 breast = system: MDA-MB-468 breast
SF-539 CNS = system: SF-539 CNS
KM12 colon = system: KM12 colon
EKVX NSCLC = system: EKVX NSCLC
SF-268 CNS = system: SF-268 CNS
HCT-116 colon = system: HCT-116 colon
DU-145 prostate = system: DU-145 prostate
T-47D breast = system: T-47D breast
UO-31 renal = system: UO-31 renal
MCF7 breast = system: MCF7 breast
SR leukemia = system: SR leukemia
NCI-H460 NSCLC = system: NCI-H460 NSCLC
UACC-257 melanoma = system: UACC-257 melanoma
NCI-H226 lung = system: NCI-H226 lung
HOP-62 NSCLC = system: HOP-62 NSCLC
HL-60(TB) leukemia = system: HL-60(TB) leukemia
SN12C renal = system: SN12C renal
SK-MEL-5 melanoma = system: SK-MEL-5 melanoma
SK-OV-3 ovarian = system: SK-OV-3 ovarian

Compound: COc1cc2ncnc(Nc3ccc(F)c(Cl)c3)c2cc1NC(=O)/C=C/CN1CCCCC1
- GI50 (NCI/ADR-RES ovarian): 1140 nM
- TGI (NCI/ADR-RES ovarian): 2370 nM
- GI50 (SK-MEL-28 melanoma): 1620 nM
- TGI (SK-MEL-28 melanoma): 2980 nM
- GI50 (UACC-62 melanoma): 1590 nM
- TGI (UACC-62 melanoma): 2960 nM
- GI50 (SF-295 CNS): 4.83 µM
- TGI (SF-295 CNS): 7.34 µM
- GI50 (HCC-2998 colon): 5.29 µM
- GI50 (786-0 renal): 784 nM
- TGI (786-0 renal): 2290 nM
- GI50 (CCRF-CEM leukemia): 1920 nM
- TGI (CCRF-CEM leukemia): 3.37 µM
- GI50 (LOX IMVI melanoma): 2540 nM
- TGI (LOX IMVI melanoma): 5.01 µM
- GI50 (MDA-MB-231 breast): 1230 nM
- TGI (MDA-MB-231 breast): 2490 nM
- GI50 (SW-620 colon): 1620 nM
- TGI (SW-620 colon): 3.02 µM
- GI50 (RXF 393 renal): 1010 nM
- TGI (RXF 393 renal): 3.05 µM
- GI50 (BT-549 breast): 1010 nM
- TGI (BT-549 breast): 2430 nM
- GI50 (CAKI-1 renal): 618 nM
- TGI (CAKI-1 renal): 2140 nM
- GI50 (A498 renal): 471 nM
- TGI (A498 renal): 2190 nM
- GI50 (TK-10 renal): < 19.2 nM
- TGI (TK-10 renal): 3.92 µM
- GI50 (MALME-3M melanoma): 1520 nM
- TGI (MALME-3M melanoma): 2860 nM
- GI50 (RPMI-8226 leukemia): 1510 nM
- TGI (RPMI-8226 leukemia): 2850 nM
- GI50 (SNB-75 CNS): 775 nM
- TGI (SNB-75 CNS): 3.01 µM
- GI50 (OVCAR-5 ovarian): 1660 nM
- TGI (OVCAR-5 ovarian): 5.04 µM
- GI50 (M14 melanoma): 1740 nM
- TGI (M14 melanoma): 3.14 µM
- GI50 (SNB-19 CNS): 2090 nM
- TGI (SNB-19 CNS): 6.56 µM
- GI50 (OVCAR-8 ovarian): 3.43 µM
- TGI (OVCAR-8 ovarian): 4.92 µM
- GI50 (MDA-MB-435 melanoma): 1780 nM
- TGI (MDA-MB-435 melanoma): 3.26 µM
- GI50 (COLO 205 colon): 4.04 µM
- TGI (COLO 205 colon): 5.48 µM
- GI50 (HOP-92 NSCLC): 1160 nM
- TGI (HOP-92 NSCLC): 2400 nM
- GI50 (HCT-15 colon): 1180 nM
- TGI (HCT-15 colon): 4.17 µM
- GI50 (HS 578T breast): 951 nM
- TGI (HS 578T breast): 2810 nM
- GI50 (MOLT-4 leukemia): 803 nM
- TGI (MOLT-4 leukemia): 2190 nM
- GI50 (NCI-H322M lung): < 22.1 nM
- TGI (NCI-H322M lung): 150 nM
- GI50 (IGROV1 ovarian): < 27.3 nM
- TGI (IGROV1 ovarian): 1560 nM
- GI50 (OVCAR-4 ovarian): 1180 nM
- TGI (OVCAR-4 ovarian): 2470 nM
- TGI (ACHN renal): 1870 nM
- GI50 (A549 NSCLC): 3.31 µM
- TGI (A549 NSCLC): 4.86 µM
- GI50 (NCI-H522 lung): < 45.2 nM
- TGI (NCI-H522 lung): 946 nM
- GI50 (NCI-H23 lung): 3.17 µM
- TGI (NCI-H23 lung): 5.33 µM
- GI50 (U251 glioblastoma): 4.09 µM
- TGI (U251 glioblastoma): 5.53 µM
- GI50 (OVCAR-3 ovarian): 586 nM
- TGI (OVCAR-3 ovarian): 2040 nM
- GI50 (PC-3 prostate): 1670 nM
- TGI (PC-3 prostate): 3.18 µM
- GI50 (MDA-MB-468 breast): < 10 nM
- TGI (MDA-MB-468 breast): < 19.9 nM
- GI50 (SF-539 CNS): 1650 nM
- TGI (SF-539 CNS): 3.03 µM
- GI50 (KM12 colon): 2050 nM
- TGI (KM12 colon): 4.37 µM
- TGI (EKVX NSCLC): 3.81 µM
- GI50 (SF-268 CNS): 1680 nM
- TGI (SF-268 CNS): 4.33 µM
- GI50 (HCT-116 colon): 1570 nM
- TGI (HCT-116 colon): 2980 nM
- GI50 (DU-145 prostate): 395 nM
- TGI (DU-145 prostate): 2140 nM
- TGI (T-47D breast): 3.92 µM
- GI50 (UO-31 renal): 639 nM
- TGI (UO-31 renal): 2200 nM
- GI50 (MCF7 breast): 3.17 µM
- TGI (MCF7 breast): 4.96 µM
- GI50 (SR leukemia): 883 nM
- TGI (SR leukemia): 2210 nM
- GI50 (NCI-H460 NSCLC): 1720 nM
- TGI (NCI-H460 NSCLC): 3.41 µM
- GI50 (UACC-257 melanoma): 1630 nM
- TGI (UACC-257 melanoma): 3.08 µM
- GI50 (NCI-H226 lung): 3.53 µM
- TGI (NCI-H226 lung): 5 µM
- GI50 (HOP-62 NSCLC): 4.21 µM
- TGI (HOP-62 NSCLC): 5.84 µM
- GI50 (HL-60(TB) leukemia): 973 nM
- TGI (HL-60(TB) leukemia): 2340 nM
- GI50 (SN12C renal): 595 nM
- TGI (SN12C renal): 2240 nM
- GI50 (SK-MEL-5 melanoma): 1600 nM
- TGI (SK-MEL-5 melanoma): 3.67 µM
- GI50 (SK-OV-3 ovarian): 619 nM
- TGI (SK-OV-3 ovarian): 5.93 µM
